Earlier results on one compound are cited in patent publication US7223777B2, “Compounds for the management of aging-related and diabetic vascular complications, process for their preparation, therapeutic and cosmetic uses thereof” (Torrent Pharmaceuticals Ltd., priority 2001, dated 2007).

The test system of data set [1] is diabetic rats. Conditions: cited from earlier work.
Data set [2] relates to diabetic retinopathy in rat model. Conditions: rat model (Hammes 1991, 1994; Roufail 1998); cited from earlier work.
Data set [3] relates to diabetic rats. The settings on record: diabetic rats (Kihara 1991, Miyauchi 1996, Yagihashi 1992); cited from earlier work.
The test system of the next data set is old rats. The settings on record: aging rats (Li et al 1996); cited from earlier work.

For the compound `N=C(N)NN` [aminoguanidine], the “development of diabetic nephropathy” value in the data set on diabetic rats [1] (Yamauchi (1997)) was “inhibits development of diabetic nephropathy”. For the same compound, the “thickening of glomerular basement membrane” value with diabetic rats [1] (diabetic rats (Ellis 1991)) is “ameliorate thickening of glomerular basement membrane”. In the data set on diabetic rats [1] (experimental diabetic rats (Soulis-Liparota, 1991)), the rise in albuminuria result is on record as “attenuate the rise in albuminuria”. Besides, in data set [2], the “progression of diabetic retinopathy” value was “retard progression of diabetic retinopathy”. For the same compound, the nerve conduction velocity result in the data set on diabetic rats [3] is on record as “improve nerve conduction velocity”. Besides, the tissue damage entry in the data set with old rats is “significantly prevent tissue damage”.
